# Results as given in PMC6050274, “Buparlisib is a brain penetrable pan-PI3K inhibitor” (Scientific Reports, 2018).
# Assays:
# PI3K = assay: Intracranial target inhibition, immunoblotting of brain lysates; assay type: in vivo, FVB mice
# Procedure: Figure 3 Buparlisib has excellent intracranial target engagement and oral bioavailability. (A) Buparlisib was orally administered to wildtype mice at a dose of 1 mg/kg, 2 mg/kg or 5 mg/kg. One hour after injection, blood and tissues were collected for LC-MS/MS analysis. Buparlisib plasma and brain levels increase dose-dependently, yielding similar and excellent brain-plasma ratios at all dose levels that were tested. (B) Immunoblotting of brain tissue lysates from (A). […] (C) Plasma-time curves of male and female wildtype mice following intravenous (2 mg/kg) or oral (5 mg/kg) administration. […] The oral bioavailability of buparlisib is excellent, since oral and intravenous administration yielded similar dose-adjusted AUCs (see Table 1). All data are represented as mean ± SD (n = 4).
# Next, we studied the intracranial pharmacodynamics of buparlisib in WT FVB mice as measured by target inhibition.
# Mouse brains were homogenized in RIPA buffer supplemented with sodium fluoride (2 mM), sodium orthovanadate (1 mM), sodium pyrophosphate (1 mM), β-glycerophosphate (2.5 mM), PMSF (1 mM), DTT (1 mM) and protein inhibitor cocktail (Roche; Basel, Switzerland). The primary antibodies that were used in this study are phospho-Akt^S473 (1:1000; D9E, #4060; Cell Signaling Technology; Danvers, MA), total Akt (1:1000; #9272; Cell Signaling Technology), phospho-Erk1^T202/204/Erk2^T183/Y185 (1:1000; sc-16982; Santa Cruz Biotechnology, Dallas, TX), total Erk1/2 (1:1000; C16, sc-93; Santa Cruz Biotechnology) and β–tubulin (1:1000; T3952; Sigma-Aldrich, St. Louis, MO). Goat-anti-rabbit-HRP (1:2000; DAKO, Santa Clara, CA) was used a secondary antibody.
# [1] = Brain and tissue penetration after i.v. administration in wildtype and P-gp/BCRP knockout mice; assay type: in vivo, FVB mice; conditions: 2 mg/kg i.v.
# Procedure: To study whether P-gp and BCRP attenuate buparlisib brain penetration in vivo, we measured the brain and plasma concentration in wildtype (WT), Abcg2^−/−, Abcb1a/b^−/− and Abcb1a/b; Abcg2^−/− mice 1 hour after i.v. administration of 2 mg/kg buparlisib.
# Figure 2 The impact of P-gp and BCRP on the brain and tissue penetration of buparlisib. Buparlisib was administered intravenously to wildtype, Abcg2^−/−, Abcb1a/b^−/− and Abcb1a/b;Abcg2^−/− mice at a dose of 2 mg/kg. One hour after injection, blood and tissues were collected for LC-MS/MS analysis. […] All data are represented as mean ± SD (n = 4).
# The pharmacokinetics of buparlisib were analysed in WT, Abcg2^−/−, Abcb1a/b^−/− and Abcb1a/b; Abcg2^−/− FVB mice. All knockout mice strains have been developed within our institute[41]–[43]. For i.v. administration, buparlisib was dissolved in DMSO and injected at a dose of 2 mg/kg. For oral administration, buparlisib was formulated in DMSO:Cremophor EL:water (1:1:8 v/v/v) and administered at 1, 2 or 5 mg/kg as indicated. Tail vein bleeding was used to collect blood at intermediate time points, whereas at the last time point blood was drawn by cardiac puncture and various tissue were collected. Plasma was obtained from whole blood by centrifugation (5 min, 5,000 rpm, 4 °C). After weighing, tissues were homogenized using a FastPrep®-24 (MP-Biomedicals, NY) in 1% (w/v) bovine serum albumin in water. Buparlisib was extracted from plasma and tissue homogenate by liquid-liquid extraction with ethyl acetate using AZD8055 as an internal standard.
# Buparlisib was measured in samples from in vitro transport assays and in vivo pharmacokinetic studies using an LC-MS/MS system comprised of an UltiMate 3000 LC Systems (Dionex, Sunnyvale, CA) and an API 4000 mass spectrometer (Sciex, Framingham, MA). Samples were run through a Securityguard C18 pre-column (Phenomenex, Utrecht, The Netherlands) prior to separation on a ZORBAX Extend-C18 column (Agilent, Santa Clara, CA). Elution was done using a in a 5 minute gradient from 20% to 95% B (mobile phase A was 0.1% HCOOH in water (v/v) and mobile phase B was methanol). 95% B was maintained for 3 min followed by re-equilibration at 20% B. Multiple reaction monitoring was performed at 411.3/367.2 (buparlisib) and 418.2/138.4 (AZD8055). Analyst® 1.6.2 software (AB Sciex; Foster City, CA) was used for system control and data analysis.
# As described in detail before, CETA results were analysed with the General linear model repeated measures procedure of SPSS (v22; SPSS Inc, Chicago, IL)[25]. PK solver was used to determine pharmacokinetic parameters. The standard error of the oral bioavailability was calculated using the formula below: SEF=F(SEAUCp.o./AUCp.o.)^2+(SEAUCi.v./AUCi.v.)^2 Buparlisib concentrations in WT and transporter knockout mice in vivo were compared using one-way analysis of variance followed by post hoc Bonferroni tests. Statistical differences between the buparlisib PK parameters in male and female mice were calculated as Bonferroni corrected p-values using multiple Student’s t-tests. Differences were considered statistically significant when p < 0.05.
compound,measurement,setting,value
Nc1cc(C(F)(F)F)c(-c2cc(N3CCOCC3)nc(N3CCOCC3)n2)cn1 [buparlisib],phosphorylation of Akt S473 in the brain,"PI3K; oral 5 mg/kg, wildtype mice",efficiently inhibited
same,phosphorylation of AKT in brain lysates,"PI3K; oral 1, 2, 5 mg/kg, WT FVB mice",dose-dependently decreased
same,signalling through ERK in brain lysates,"PI3K; oral, WT FVB mice",without affecting
same,"brain concentration compared with liver, kidney and spleen concentrations",[1]; 1 hour,slightly higher
same,kidney level compared with concurrent plasma level,[1]; 1 hour,lower
same,liver level compared with concurrent plasma level,[1]; 1 hour,equal
same,spleen level compared with concurrent plasma level,[1]; 1 hour,lower
same,differences among mouse strains in plasma and brain concentrations,"[1]; 1 hour, WT vs transporter knockout mice",No differences
same,Kp at 1 h,"[1]; FVB, mouse, brain/plasma, intravenous, all strains (WT, Abcg2-/-, Abcb1a/b-/-, Abcb1a/b;Abcg2-/-), read-out: brain-plasma ratio",1.5 to 2
